From patent publication US9980943B2, “Methods of treating muscular dystrophy” (BOARD OF REGENTS OF THE NEVADA SYSTEM OF HIGHER EDUCATION, …, priority 2013, dated 2018)
Several values for one entry are separate records, joined by “and”; a condition that tells them apart may be missing. Equal values may be shown once.

Key:
Type in all cases: cell-based, mouse
[1] = system: α7 integrin (LacZ reporter in α7βgal+/− myoblasts); assay: Myoblast α7+/LacZ integrin FDG assay (Burkin assay in myoblasts, 96-well); details: α7+/LacZ myoblasts, 96-well
[2] = system: β-galactosidase in CMV-LacZ C2C12 myoblasts; assay: CMV-LacZ secondary screen in C2C12 myoblasts (β-Gal stabilizing assay); details: CMV-LacZ C2C12 myoblasts
Text: In order to determine compounds that acted to stabilize β-gal in myogenic cells, a CMV-LacZ C2C12 cell line was used in a secondary screen. The EGFP gene from the pEGFP (Clontech) vector was replaced by LACZ PCR product with digests of the vector/PCR product performed using EcoRI (NEB) and NotI (NEB) and ligated using T4 DNA Ligase (NEB) following standard procedures to produce the CMV-LACZ vector. The LACZ gene was generated by PCR from the pBK-RSV (Stratagene) vector using primers LACZ EcoRI F- and LACZ NotI R-. The CMV-LACZ vector was then digested with AfIII (NEB) to linearize the construct, which was then transfected in C2C12 myoblasts using Lipofectamine 2000 (Invitrogen) following the manufacturer's instructions. […] Clonal lines were selected and screened for βgal levels using the myoblast FDG assay.
The assays were used the original 96-well format and new dose-response curves for myoblasts (N=3-6 replicates for each data point), myotubes (N=3-6 replicates for data point), and CMV-LacZ secondary assay (N=2 replicates for each data point) using concentrations of 0.5 μM, 1 μM, 5 μM, 10 μM, 20 μM, and 40 μM (Tables 9-16).

[3] = system: β-galactosidase in CMV-LacZ C2C12 myotubes; assay: CMV-LacZ secondary screen in C2C12 myotubes (β-Gal stabilizing assay); details: C2C12 CMV-LacZ myotubes, fold relative to DMSO
How it was run: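 CMV-LacZ C2C12 line (clonal, FDG-screened); myoblasts/myotubes dosed 0.5–40 μM (0.5, 1, 5, 10, 20, 40 μM); n=2 per point; β-gal stabilization read-out.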

[4] = system: α7 integrin (LacZ reporter in α7+/LacZ myotubes); assay: Myotube α7 integrin FDG assay (Burkin assay in myotubes, 96-well); details: myotubes

Row | Compound | Burkin Assay in Myoblasts, signal relative to DMSO ([1]; 0.5 uM) | Burkin Assay in Myoblasts, signal relative to DMSO ([1]; 1 uM) | Burkin Assay in Myoblasts, signal relative to DMSO ([1]; 5 uM) | Burkin Assay in Myoblasts, signal relative to DMSO ([1]; 10 uM) | Burkin Assay in Myoblasts, signal relative to DMSO ([1]; 20 uM) | Burkin Assay in Myoblasts, signal relative to DMSO ([1]; 40 uM) | CMV-LACZ in Myoblasts (β-galactosidase activity relative to DMSO) ([2]; 0.5 uM) | CMV-LACZ in Myoblasts (β-galactosidase activity relative to DMSO) ([2]; 1 uM) | CMV-LACZ in Myoblasts (β-galactosidase activity relative to DMSO) ([2]; 5 uM) | CMV-LACZ in Myoblasts (β-galactosidase activity relative to DMSO) ([2]; 10 uM) | CMV-LACZ in Myoblasts (β-galactosidase activity relative to DMSO) ([2]; 20 uM) | CMV-LACZ in Myoblasts (β-galactosidase activity relative to DMSO) ([2]; 40 uM) | CMV-LACZ in Myotubes, signal relative to DMSO ([3]; 0.5 uM) | CMV-LACZ in Myotubes, signal relative to DMSO ([3]; 1 uM) | CMV-LACZ in Myotubes, signal relative to DMSO ([3]; 5 uM) | CMV-LACZ in Myotubes, signal relative to DMSO ([3]; 10 uM) | CMV-LACZ in Myotubes, signal relative to DMSO ([3]; 20 uM) | CMV-LACZ in Myotubes, signal relative to DMSO ([3]; 40 uM) | Burkin Assay in Myotubes, α7 integrin LacZ reporter signal relative to DMSO ([4]; 0.5 uM) | Burkin Assay in Myotubes, α7 integrin LacZ reporter signal relative to DMSO ([4]; 1 uM) | also measured
1 | NC(=O)c1sc2nc3c(cc2c1N)CCC3 [MLS000707378-01] | 1.003 | 1.046 | 1.024 | 1.076 | 1.317 | 1.493 | 1.0175 | 1.0883 | 0.8309 | 0.8072 | 0.8667 | 0.6548 | 1.0537 | 1.3937 | 0.9294 | 1.0300 | 0.9689 | 0.9167 | 0.8716 | 0.8512 | Burkin Assay in Myotubes, α7 integrin LacZ reporter signal relative to DMSO ([4]; 5 uM): 0.8899; Burkin Assay in Myotubes, α7 integrin LacZ reporter signal relative to DMSO ([4]; 10 uM): 1.241; Burkin Assay in Myotubes, α7 integrin LacZ reporter signal relative to DMSO ([4]; 20 uM): 1.046; Burkin Assay in Myotubes, α7 integrin LacZ reporter signal relative to DMSO ([4]; 40 uM): 1.051
2 | CC1(C)Cc2c(cnn2-c2cccc(F)c2)C(NC(=O)CCc2cnccn2)C1 (stereo not drawn) [MLS001125260-01] | 1.21 and 1.071 | 1.11 and 1.021 | 0.9838 and 0.9248 | 0.9616 and 0.8893 | 1.024 and 0.8738 | 0.9057 and 0.8426 | 1.1581 | 1.0584 | 1.0114 | 0.9131 | 1.0563 | 1.2270 | 1.0074 | 1.0993 | 0.9614 and 0.9645 | 1.0994 and 1.065 | 1.0000 and 1.0765 | 0.9212 and 1.175 | 1.285 and 1.002 | 1.208 and 0.8663 | Burkin Assay in Myotubes, α7 integrin LacZ reporter signal relative to DMSO ([4]; 5 uM): 0.9677 and 1.022; Burkin Assay in Myotubes, α7 integrin LacZ reporter signal relative to DMSO ([4]; 10 uM): 1.091 and 0.9402; Burkin Assay in Myotubes, α7 integrin LacZ reporter signal relative to DMSO ([4]; 20 uM): 0.7634 and 0.9057; Burkin Assay in Myotubes, α7 integrin LacZ reporter signal relative to DMSO ([4]; 40 uM): 0.7451 and 0.9086
